Measurements: patent US9951060B2, “2-acylaminothiazole derivative or salt thereof” (ASTELLAS PHARMA INC., priority 2014, dated 2018)
Like-named read-outs stand apart in the source and are kept apart here.

How the values were obtained:
[1] = molecular target: T1, human c-Mpl-introduced Ba/F3 cell (Homo sapiens, UniProt P40238); assay: Test Example 2: human c-Mpl-introduced Ba/F3 cell proliferative activity; assay type: cell-based; details: concentration exhibiting 30% proliferation; 100% = positive control (Example 315 of Patent Document 1) at 1 μM
T1 construct: expressed in transfected cells
T1 sequence (P40238 26-635): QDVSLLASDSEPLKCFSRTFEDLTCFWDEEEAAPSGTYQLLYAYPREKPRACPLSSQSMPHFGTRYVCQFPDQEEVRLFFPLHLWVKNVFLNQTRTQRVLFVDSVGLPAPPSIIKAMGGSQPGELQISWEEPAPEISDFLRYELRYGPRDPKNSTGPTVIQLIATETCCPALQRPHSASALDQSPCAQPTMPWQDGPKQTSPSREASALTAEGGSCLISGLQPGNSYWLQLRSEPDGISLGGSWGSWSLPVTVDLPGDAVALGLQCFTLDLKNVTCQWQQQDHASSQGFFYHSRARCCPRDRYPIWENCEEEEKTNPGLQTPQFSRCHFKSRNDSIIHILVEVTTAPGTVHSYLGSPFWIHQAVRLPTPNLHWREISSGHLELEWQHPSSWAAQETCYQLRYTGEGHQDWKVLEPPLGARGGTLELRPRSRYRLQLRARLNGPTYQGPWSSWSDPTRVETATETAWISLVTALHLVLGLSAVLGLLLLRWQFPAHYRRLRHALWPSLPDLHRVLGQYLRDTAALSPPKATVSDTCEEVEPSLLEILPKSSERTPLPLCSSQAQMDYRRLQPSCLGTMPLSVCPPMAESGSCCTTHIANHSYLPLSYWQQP
Description: Test Example 2: Evaluation of Human c-Mpl-Introduced Ba/F3 Cell Proliferative Activity
The human c-Mpl-introduced Ba/F3 cell proliferation action was measured by the following method.
As a positive control, 1-(5-{[4-(4-chlorothiophen-2-yl)-5-{[(2R)-2-methylpyrrolidin-1-yl]methyl}-1,3-thiazol-2-yl]carbamoyl}-3-fluoropyridin-2-yl)piperidine-4-carboxylic acid hydrochloride disclosed as Example 315 in Patent Document 1, represented by the formula (A1) above, was used. Further, it is known that the compound has a good human c-Mpl-introduced Ba/F3 cell proliferative activity as disclosed in Table 1 in Patent Document 1.
a) Construction of Vector Expressing Human c-Mpl Receptor
A human c-Mpl receptor gene (GenBank Accession No.: M90102.1) was transfected into an expression vector pEF-BOS (Nucleic Acids Research, 18: pp 5322 (1990)).
b) Construction of Cell Stably Expressing Human c-Mpl Receptor
A vector expressing a human c-Mpl receptor was introduced into a Ba/F3 cell (RIKEN BRC: RCB0805). For the introduction, an electroporation method was used. pEF-BOS-c-mpl (10 μg), pSV2bsr (1 μg, Kaken Pharmaceutical Co., Ltd.) and 1×10^7 of Ba/F3 cells were put into cuvettes with a gap width of 0.4 cm and electroporated under a condition of 1.5 kV (25 μF) in a Gene Pulser (registered trademark) (BioRad). The cells were incubated in an RPMI-1640 medium supplemented with a 0.5% WEHI conditioned medium (BD Biosciences) and 10% fetal bovine serum for 3 days, and thereafter, and the cells were incubated for 30 days in an RPMI-1640 medium, to which 10 μg/mL blasticidin had been further added, thereby acquiring a drug-resistant clone.
c) Measurement of Cell Proliferative Activity
The cells obtained in b) above were dispensed into an RPMI-1640 medium supplemented with a 0.5% WEHI conditioned medium and 10% fetal bovine serum, and used. The day before the experiment, the test substances (final concentration of 100 nM to 10 μM) which had been dissolved in a medium for assay (an RPMI-1640 medium supplemented with 10% fetal bovine serum) were added to a 384-well plate (Model No. 781185, Greiner bio-one). The cells after the medium had been replaced with the medium for assay were dispensed to a 384-well plate to which the test substance had been added, to 1×10^4 cells/well, and incubated overnight at 37° C. and 5% CO2. On the experiment day, a solution of a Cell counting kit (Dojindo Laboratories) was added to each well of the 384-well plate, and the cells were incubated for about 5 hours at 37° C. and 5% CO2. Thereafter, the absorbance (an absorbance wavelength of 450 nm) of each well was measured using Safire^2 (registered trademark) (TECAN), and used as an index for the number of cells. Further, as a negative control, a well to which the test substances had not been added was prepared.
By taking the absorbance of the well to which the test substance had been not added as 0% and taking the absorbance in a case where the positive control had been added to a final concentration of 1 μM as 100%, a cell proliferation rate (%) was calculated from the absorbance of the well to which the test substance had been added.

[2] = molecular target: T2, human muscarinic M3 receptor (Homo sapiens, UniProt P20309); assay: Test Example 1: muscarinic M3 receptor positive allosteric modulator activity (shift of carbachol concentration-response curve, intracellular Ca2+, FLIPR); details: carbachol EC50 without / with test substance, CHO-K1 cells expressing human M3
T2 sequence (P20309 whole entry): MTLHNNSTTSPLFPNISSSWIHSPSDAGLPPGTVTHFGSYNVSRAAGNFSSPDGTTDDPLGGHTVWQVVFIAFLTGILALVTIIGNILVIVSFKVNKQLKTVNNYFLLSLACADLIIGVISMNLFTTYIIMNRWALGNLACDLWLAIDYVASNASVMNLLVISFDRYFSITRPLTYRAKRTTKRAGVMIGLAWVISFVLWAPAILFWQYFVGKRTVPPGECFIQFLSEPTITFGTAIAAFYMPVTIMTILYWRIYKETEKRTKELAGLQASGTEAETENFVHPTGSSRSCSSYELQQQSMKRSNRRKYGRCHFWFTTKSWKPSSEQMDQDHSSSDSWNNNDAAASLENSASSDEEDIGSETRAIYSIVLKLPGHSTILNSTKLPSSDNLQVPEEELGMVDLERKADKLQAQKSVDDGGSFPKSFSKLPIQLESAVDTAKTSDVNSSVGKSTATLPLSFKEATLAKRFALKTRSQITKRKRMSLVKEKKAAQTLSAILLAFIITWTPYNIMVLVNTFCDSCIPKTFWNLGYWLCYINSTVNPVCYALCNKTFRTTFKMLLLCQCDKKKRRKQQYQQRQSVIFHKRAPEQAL
Description: (§1) Test Example 1: Evaluation of Muscarinic M3 Receptor Positive Allosteric Modulator Activity
(§2) a) Construction of Vector Expressing Human Muscarinic M3 Receptor
(§3) A human muscarinic M3 receptor gene (GenBank Accession No.: NM_000740.2) was introduced into an expression vector pcDNA3.1™ (Life Technologies).
(§4) b) Construction of Cells Stably Expressing Human Muscarinic M3 Receptor
(§5) A vector expressing a human muscarinic M3 receptor was introduced into a CHO—K1 cell (ATCC No.: CCL-61). The introduction was carried out according to the attached instructions, using a transfection reagent, Lipofectoamine (registered trademark) 2000 Reagent (Life Technologies). The cells were incubated in an alpha Modified Eagle Minimum Essential Medium (α-MEM) including 2 mM glutamine, 10% fetal bovine serum, and 2.0 mg/mL Geneticin (registered trademark) (Life Technologies) for 4 weeks to acquire a drug-resistant clone.
(§6) c) Measurement of Intracellular Ca^2+ Concentration
(§7) The cells obtained in b) above were suspended in an α-MEM including 2 mM glutamine, 10% fetal bovine serum, and 0.2 mg/mL Geneticin (registered trademark) to the amount from 1.2 to 1.5×10^4 cells/well the day before the experiment, dispensed into a 384-well plate (Model No. 355962, BD Biosciences), and incubated overnight at 37° C. and 5% CO2. The medium was replaced with a loading buffer (an assay buffer (Hank's balanced salt solution (HBSS), 1 g/L BSA, 20 mM HEPES (pH 7.5), and 2.5 mM probenecid), including 3.1 μM Fluo 4-AM (Dojindo Laboratories) and incubated for about 2 hours at room temperature. Thereafter, the cells were washed with a plate washer ELx405™ (BIO-TEK Instrument, Inc.) set with the assay buffer, and set in an intracellular Ca^2+ concentration measuring system (FLIPR^tetra (registered trademark), Molecular Device Co.). The test substances (final concentration of 1 μM or 10 μM) and carbachol (Sigma, final concentration of 0.0024 nM to 10 μM) which had each been dissolved in the assay buffer in advance were set in a FLIPR^tetra (registered trademark). The test substances were added to the cells in the device and after about 5 minutes, carbachol was added to the cells. An increase rate of the intracellular Ca^2+ concentration by carbachol was measured (excitement wavelength of 470 nm to 495 nm and a fluorescence wavelength of 515 nm to 575 nm).
(§8) For the muscarinic M3 receptor-positive allosteric modulator activity, a shift toward a lower concentration side of a carbachol concentration-response curve by the test substance was used as an index. […] For example, when the EC50 value of carbachol in the absence of the test substance was 0.1 μM and the EC50 value of carbachol in the presence of the test substance was 0.01 μM, the value of the muscarinic M3 receptor-positive allosteric modulator activity becomes 10, showing that the test substance causes a 10-fold shift in the EC50 value toward to the low concentration side.

[3] = molecular target: T2, human muscarinic M3 receptor
Description: as §1, §2, §3, §4, §5, §6, §7, §8

[4] = molecular target: T1, human c-Mpl-introduced Ba/F3 cell; details: disclosed in Table 1 of Patent Document 1 (WO 2005/007651); cited from earlier work

human c-Mpl-introduced Ba/F3 cell proliferative activity EC30 [1] | muscarinic M3 receptor-positive allosteric modulator activity, 1 μM (-fold shift) ([2]; test substance 1 μM) | muscarinic M3 receptor-positive allosteric modulator activity, 10 μM (-fold shift) ([2]; test substance 10 μM) | muscarinic M3 receptor-positive allosteric modulator activity, 1 μM (-fold shift) [3] | muscarinic M3 receptor-positive allosteric modulator activity, 10 μM (-fold shift) [3] | Compound | EC30 value of c-Mpl-introduced Ba/F3 cell proliferation action [4]
>3 µM | 25 -fold shift | 200 -fold shift |  |  | Cc1cc(-c2nc(NC(=O)c3cnc(N4CCN(CCC(=O)[O-])CC4)cn3)sc2CN2CCCC[C@H]2C)cc(C(F)(F)F)c1.[Na+] [Example 4, sodium 3-(4-{5-[(5-{[(2R)-2-methylpiperidin-1-yl]methyl}-4-[3-methyl-5-(trifluoromethyl)phenyl]-1,3-thiazol-2-yl)carbamoyl]pyrazin-2-yl}piperazin-1-yl)propanoate] | 
5 µM |  |  | 203 -fold shift | 627 -fold shift | C[C@@H]1CC[C@@H](C)N1Cc1sc(NC(=O)c2cnc(N3CCN(CCC(=O)O)CC3)cn2)nc1-c1cc(C(F)(F)F)cs1 [Example 111] | 
>10 µM |  |  | 57 -fold shift | 167 -fold shift | CCN(CC)Cc1sc(NC(=O)c2cnc(N3CCN(CC(=O)O)C[C@H]3C)cn2)nc1-c1cc(F)cc(C(F)(F)F)c1 [Example 118] | 
>10 µM |  |  | 79 -fold shift | 318 -fold shift | C[C@@H]1CC[C@@H](C)N1Cc1sc(NC(=O)c2cnc(N3CCN(CCC(=O)O)[C@@H](C)C3)cn2)nc1-c1cc(Cl)cs1 [Example 126] | 
8 µM |  |  | 73 -fold shift | 192 -fold shift | C[C@H]1CN(c2cnc(C(=O)Nc3nc(-c4cc(Cl)cs4)c(CN(C)CC4CC4)s3)cn2)CCN1CCC(=O)O [Example 128] | 
>10 µM |  |  | 95 -fold shift | 151 -fold shift | C[C@@H]1CN(c2cnc(C(=O)Nc3nc(-c4cc(Cl)cs4)c(CN(C)CC4CC4)s3)cn2)CCN1CCC(=O)O [Example 130] | 
>10 µM |  |  | 15 -fold shift | 41 -fold shift | C[C@@H]1CCCN1Cc1sc(NC(=O)c2cnc(N3CCN(CCC(=O)O)CC3)cn2)nc1-c1cc2ccccc2s1 [Example 132] | 
 |  |  |  |  | C[C@@H]1CCCN1Cc1sc(NC(=O)c2cnc(N3CCC(C(=O)O)CC3)c(F)c2)nc1-c1cc(Cl)cs1.Cl [Example 315, 1-(5-{[4-(4-chlorothiophen-2-yl)-5-{[(2R)-2-methylpyrrolidin-1-yl]methyl}-1,3-thiazol-2-yl]carbamoyl}-3-fluoropyridin-2-yl)piperidine-4-carboxylic acid hydrochloride] | 0.0032 µM
